This note sets out measurements from ChEMBL document CHEMBL6103593, “Design of Selective BRD4 Inhibitors for the Treatment of Autosomal Dominant Polycystic Kidney Disease” (J Med Chem, 2025).

Experiment [1] deals with T1, Bromodomain-containing protein 2 (Homo sapiens, UniProt P25440). As to the kind of experiment: Inhibition of BRD2 bromodomain 2 (348 to 455 residues) (unknown origin) extracted from Escherichia coli […] codon plus RIL cells incubated for 4 hrs by fluorescence anisotropy. Background: Fluorescence polarisation rises when a labelled molecule tumbles more slowly, as on binding a larger partner.
T1 sequence (P25440 whole entry, the tested form may be a part): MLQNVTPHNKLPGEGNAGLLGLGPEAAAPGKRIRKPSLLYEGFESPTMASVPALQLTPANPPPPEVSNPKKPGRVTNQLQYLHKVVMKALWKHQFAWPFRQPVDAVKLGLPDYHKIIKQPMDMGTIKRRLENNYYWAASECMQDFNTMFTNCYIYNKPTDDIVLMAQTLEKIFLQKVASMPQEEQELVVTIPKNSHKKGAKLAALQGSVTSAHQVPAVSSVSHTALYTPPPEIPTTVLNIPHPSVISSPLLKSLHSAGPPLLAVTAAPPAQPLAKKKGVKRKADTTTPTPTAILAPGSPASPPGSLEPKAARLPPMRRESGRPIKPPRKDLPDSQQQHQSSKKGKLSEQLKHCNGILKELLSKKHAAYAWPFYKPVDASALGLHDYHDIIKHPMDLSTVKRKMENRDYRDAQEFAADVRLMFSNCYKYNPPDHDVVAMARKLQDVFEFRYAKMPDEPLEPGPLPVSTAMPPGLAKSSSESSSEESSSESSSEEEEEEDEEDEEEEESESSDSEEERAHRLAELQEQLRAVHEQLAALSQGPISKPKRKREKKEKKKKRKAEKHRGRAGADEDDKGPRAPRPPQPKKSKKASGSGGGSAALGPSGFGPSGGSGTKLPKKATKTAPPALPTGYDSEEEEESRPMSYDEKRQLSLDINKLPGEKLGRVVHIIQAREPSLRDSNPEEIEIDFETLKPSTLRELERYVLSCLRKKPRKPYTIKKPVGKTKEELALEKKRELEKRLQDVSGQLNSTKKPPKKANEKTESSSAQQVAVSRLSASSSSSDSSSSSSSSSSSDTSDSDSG

Experiment [2] concerns the target Histone acetyltransferase p300 (Homo sapiens, UniProt Q09472). As to the kind of experiment: Inhibition of EP300 (1039 to 1161 residues) (unknown origin) extracted from Escherichia coli […] codon plus RIL cells incubated for 4 hrs by fluorescence anisotropy.
In experiment [3] the target is T1, Bromodomain-containing protein 2. As to the kind of experiment: Inhibition of BRD2 bromodomain 1 (67 to 200 residues) (unknown origin) extracted from Escherichia coli […] codon plus RIL cells incubated for 4 hrs by fluorescence anisotropy.
The target of experiment [4] is T2, Bromodomain-containing protein 4 (Homo sapiens, UniProt O60885). As to the kind of experiment: Inhibition of BRD4 bromodomain 2 (332 to 460 residues) (unknown origin) extracted from Escherichia coli […] codon plus RIL cells incubated for 4 hrs by fluorescence anisotropy.
Experiment [5] has as its target T2, Bromodomain-containing protein 4. As to the kind of experiment: Inhibition of BRD4 bromodomain 1 (44 to 168 residues) (unknown origin) extracted from Escherichia coli […] codon plus RIL cells incubated for 4 hrs by fluorescence anisotropy.

Sequence of Histone acetyltransferase p300 (Q09472 whole entry, the tested form may be a part): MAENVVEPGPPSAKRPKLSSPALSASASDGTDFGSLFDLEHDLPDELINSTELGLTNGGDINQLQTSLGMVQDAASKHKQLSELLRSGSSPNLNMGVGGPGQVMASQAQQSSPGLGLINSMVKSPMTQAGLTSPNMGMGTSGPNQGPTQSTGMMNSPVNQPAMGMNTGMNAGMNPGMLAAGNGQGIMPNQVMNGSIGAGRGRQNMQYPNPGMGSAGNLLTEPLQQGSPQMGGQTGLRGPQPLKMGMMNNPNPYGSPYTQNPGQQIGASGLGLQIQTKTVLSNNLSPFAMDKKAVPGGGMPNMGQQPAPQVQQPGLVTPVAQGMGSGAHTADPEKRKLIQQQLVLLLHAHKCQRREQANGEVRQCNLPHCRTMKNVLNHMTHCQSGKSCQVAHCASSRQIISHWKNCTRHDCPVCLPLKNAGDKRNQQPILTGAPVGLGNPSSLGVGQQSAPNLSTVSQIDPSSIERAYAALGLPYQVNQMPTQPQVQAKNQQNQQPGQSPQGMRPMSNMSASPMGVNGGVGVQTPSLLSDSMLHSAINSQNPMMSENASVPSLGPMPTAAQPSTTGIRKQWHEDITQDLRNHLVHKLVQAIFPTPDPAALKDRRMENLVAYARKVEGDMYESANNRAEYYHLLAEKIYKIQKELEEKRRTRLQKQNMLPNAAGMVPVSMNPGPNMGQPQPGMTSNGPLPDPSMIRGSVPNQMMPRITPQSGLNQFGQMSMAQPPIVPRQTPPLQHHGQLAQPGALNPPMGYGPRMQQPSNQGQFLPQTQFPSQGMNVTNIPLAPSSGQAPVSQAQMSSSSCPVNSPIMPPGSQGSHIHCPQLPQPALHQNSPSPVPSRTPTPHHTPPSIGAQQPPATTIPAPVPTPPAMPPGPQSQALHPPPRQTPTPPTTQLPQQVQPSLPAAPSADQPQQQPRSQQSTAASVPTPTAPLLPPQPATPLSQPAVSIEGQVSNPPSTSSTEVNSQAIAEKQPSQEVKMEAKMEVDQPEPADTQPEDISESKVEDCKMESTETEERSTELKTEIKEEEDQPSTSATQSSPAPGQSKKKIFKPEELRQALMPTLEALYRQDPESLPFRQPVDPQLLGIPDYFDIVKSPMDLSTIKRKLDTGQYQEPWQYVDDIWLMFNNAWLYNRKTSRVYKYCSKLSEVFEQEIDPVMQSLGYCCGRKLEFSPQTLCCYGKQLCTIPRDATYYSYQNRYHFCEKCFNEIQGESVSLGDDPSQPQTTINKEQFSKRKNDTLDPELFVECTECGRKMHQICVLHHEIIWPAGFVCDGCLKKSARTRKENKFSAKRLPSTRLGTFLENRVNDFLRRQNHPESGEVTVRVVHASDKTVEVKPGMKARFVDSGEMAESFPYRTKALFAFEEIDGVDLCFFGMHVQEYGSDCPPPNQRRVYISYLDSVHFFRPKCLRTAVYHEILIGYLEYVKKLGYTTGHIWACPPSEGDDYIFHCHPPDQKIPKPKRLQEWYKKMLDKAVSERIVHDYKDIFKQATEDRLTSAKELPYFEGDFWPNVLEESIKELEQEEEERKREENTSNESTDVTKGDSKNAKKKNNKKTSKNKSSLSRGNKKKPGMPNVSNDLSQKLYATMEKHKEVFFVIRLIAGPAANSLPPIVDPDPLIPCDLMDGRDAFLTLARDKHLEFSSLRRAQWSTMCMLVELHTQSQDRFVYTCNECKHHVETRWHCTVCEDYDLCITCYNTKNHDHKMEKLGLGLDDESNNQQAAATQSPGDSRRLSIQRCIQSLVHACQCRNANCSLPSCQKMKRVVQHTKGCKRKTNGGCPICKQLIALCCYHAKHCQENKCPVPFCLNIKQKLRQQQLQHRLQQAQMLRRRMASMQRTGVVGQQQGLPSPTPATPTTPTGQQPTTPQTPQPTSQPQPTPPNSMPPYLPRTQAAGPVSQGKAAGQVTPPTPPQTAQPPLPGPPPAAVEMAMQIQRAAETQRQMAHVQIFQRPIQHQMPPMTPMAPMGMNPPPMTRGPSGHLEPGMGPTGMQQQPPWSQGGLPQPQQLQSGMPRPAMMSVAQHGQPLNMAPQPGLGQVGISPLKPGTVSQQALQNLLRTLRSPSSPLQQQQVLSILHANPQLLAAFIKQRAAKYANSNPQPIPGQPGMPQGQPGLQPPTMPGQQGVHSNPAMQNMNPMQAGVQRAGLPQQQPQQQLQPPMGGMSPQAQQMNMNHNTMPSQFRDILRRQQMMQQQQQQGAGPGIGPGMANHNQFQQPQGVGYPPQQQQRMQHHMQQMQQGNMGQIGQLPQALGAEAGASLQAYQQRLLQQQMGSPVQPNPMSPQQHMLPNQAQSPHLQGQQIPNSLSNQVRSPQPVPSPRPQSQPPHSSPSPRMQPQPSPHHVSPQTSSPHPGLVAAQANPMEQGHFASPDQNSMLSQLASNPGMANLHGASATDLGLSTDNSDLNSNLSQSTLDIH

For `Cc1cc(Nc2nn(C)c3ccccc23)nc(Nc2ccc3c(c2)N(C(C)C)[C@H](C)C(=O)N3C)n1`, the values for the half-maximal inhibitory concentration (IC50) in experiment [1], in experiment [2] and in experiment [3] were 291 nM, more than 1000 nM and 50.5 nM, respectively.

For `CCc1cc(Nc2nn(C)c3ccccc23)nc(Nc2ccc3c(c2)N(C(C)C)[C@H](C)C(=O)N3C)n1`, the IC50 in experiment [1] is 302 nM; in experiment [2] it was more than 1000 nM; in experiment [3] it was 29.3 nM.

For `CC(C)N1c2cc(Nc3nccc(Nc4nn(C)c5ccccc45)n3)ccc2N(C)C(=O)[C@H]1C`, the figures for the IC50 in experiment [1], in experiment [2] and in experiment [3] were 233 nM, more than 1000 nM and 31.8 nM, respectively.

Regarding `CCc1cc(Nc2cccc(Cl)c2)nc(Nc2ccc3c(c2)N(C(C)C)[C@H](C)C(=O)N3C)n1`, the IC50 was determined as 2070 nM in experiment [4] and 504 nM in experiment [5].

Usually IC50 stands for the midpoint of a concentration-inhibition curve.
